Reference: ChEMBL document CHEMBL1201862, “PubChem BioAssay data set” (2004)
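Step 1: Grow cells in 96-well plates. Step 2: Expose to compound for 48 hours at 5 concentrations. Step 3: Interpolate endpoints linearly; if unreached, use highest concentration. GI50 = concentration required for 50% inhibition of growth.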 Active and inactive are the calls of the source. Cut-off read from the data, not from the text of the source: active = GI50 up to about 1.1 µM and inactive = higher.

What was measured:
Test in all cases: DTP human tumour cell line panel, 48 h
NCI-H460 = test system: NCI-H460
CAKI-1 = test system: CAKI-1
IGROV-1 = test system: IGROV-1
M14 = test system: M14
786-0 = test system: 786-0
COLO 205 = test system: COLO 205
SK-MEL-2 = test system: SK-MEL-2
OVCAR-5 = test system: OVCAR-5
KM12 = test system: KM12
HL-60 = test system: HL-60
NCI-H522 = test system: NCI-H522
HCT-15 = test system: HCT-15
SN12C = test system: SN12C
RXF 393 = test system: RXF 393
SW-620 = test system: SW-620
SNB-19 = test system: SNB-19
MOLT-4 = test system: MOLT-4
HCC 2998 = test system: HCC 2998
MDA-MB-435 = test system: MDA-MB-435

Row | Structure (SMILES) | GI50 (NCI-H460) | GI50 (CAKI-1) | GI50 (IGROV-1) | GI50 (M14) | GI50 (786-0) | GI50 (COLO 205) | GI50 (SK-MEL-2) | GI50 (OVCAR-5) | GI50 (KM12) | GI50 (HL-60) | GI50 (NCI-H522) | GI50 (HCT-15) [µM] | GI50 (SN12C) | GI50 (RXF 393) | GI50 (SW-620) | GI50 (SNB-19) | GI50 (MOLT-4) | GI50 (HCC 2998) | GI50 (MDA-MB-435)
1 | NC1C2(CCCCCC2)NC(=O)C12CCCCCC2 (configuration not stated) | > 100 µM (inactive) | > 100 µM (inactive) | > 100 µM (inactive) | > 100 µM (inactive) | > 100 µM (inactive) | > 100 µM (inactive) | > 100 µM (inactive) | > 100 µM (inactive) | > 100 µM (inactive) | > 100 µM (inactive) | > 100 µM (inactive) | > 100 | > 100 µM (inactive) | > 100 µM (inactive) | > 100 µM (inactive) | > 100 µM (inactive) | > 100 µM (inactive) | – | –
2 | O=C(Cc1nc(-c2ccccc2)cc(=O)n1-c1ccccc1Cl)c1ccncc1 | > 100 µM (inactive) | > 100 µM (inactive) | > 100 µM (inactive) | > 100 µM (inactive) | > 100 µM (inactive) | > 100 µM (inactive) | > 100 µM (inactive) | > 100 µM (inactive) | > 100 µM (inactive) | 9.1 µM (inactive) | > 100 µM (inactive) | > 100 | > 100 µM (inactive) | > 100 µM (inactive) | > 100 µM (inactive) | > 100 µM (inactive) | – | > 100 µM (inactive) | –
3 | O=c1c(Cc2ccccc2)c(-c2ccccc2)[nH]n1C1=NCCN1 | 16.9 µM (inactive) | 72.1 µM (inactive) | 36.5 µM (inactive) | 25.3 µM (inactive) | 37.3 µM (inactive) | 35.2 µM (inactive) | 28.4 µM (inactive) | 72.6 µM (inactive) | 61 µM (inactive) | 15.1 µM (inactive) | 40.5 µM (inactive) | 7.74 | – | 92.9 µM (inactive) | 38.6 µM (inactive) | 76.4 µM (inactive) | 35.5 µM (inactive) | – | 24.8 µM (inactive)
4 | Cn1cc(C(=O)C[n+]2ccccc2)c2ccccc21 | > 100 µM (inactive) | 30.3 µM (inactive) | 72.1 µM (inactive) | > 100 µM (inactive) | > 100 µM (inactive) | 52.2 µM (inactive) | > 100 µM (inactive) | – | 50.2 µM (inactive) | > 100 µM (inactive) | 56 µM (inactive) | > 100 | 62.4 µM (inactive) | – | > 100 µM (inactive) | 52.8 µM (inactive) | 54.7 µM (inactive) | > 100 µM (inactive) | –
